What was measured:
Type in all cases: cell-based
[1] = test system: HeLa (Human cervical carcinoma); assay: in vitro culture cell number, HeLa
Source text: (§1) Substances having the structures of the synthesised target material when added to in vitro cultures of various cancer cell lines produced a dose-related cell death as indicated in the Tables below.

[2] = test system: MOLT4 (Human Tcell leukaemia); assay: in vitro culture cell number, MOLT4
Source text: as §1

[3] = test system: CaSki (Human cervical epidermoid carcinoma); assay: in vitro culture cell number, CaSki
Source text: as §1

[4] = test system: PC3 (Human prostate adenocarcinoma); assay: in vitro culture cell number, PC3
Source text: as §1

[5] = test system: WIL2 (Human B lymphoblastoma); assay: in vitro culture cell number, WIL2
Source text: as §1

[6] = test system: KHOS/NP (Human osteocarcinoma); assay: in vitro culture cell number, KHOS/NP
Source text: as §1

[7] = test system: WiDr (Human colon adenocarcinoma); assay: in vitro culture cell number, WiDr
Source text: as §1

[8] = test system: G361 (Human malignant melanoma); assay: in vitro culture cell number, G361
Source text: as §1

[9] = test system: PA-1 (Human ovarian teratocarcinoma); assay: in vitro culture cell number, PA-1
Source text: as §1

[10] = Homo sapiens, 2.0 μg/ml, P < 0.001, read-out: Cell No (% Control)
[11] = Homo sapiens, 5.0 μg/ml, P < 0.001, read-out: Cell No (% Control)
[12] = Homo sapiens, 7.5 μg/ml, P < 0.001, read-out: Cell No (% Control)
[13] = Homo sapiens, 10.0 μg/ml, P < 0.001, read-out: Cell No (% Control)
[14] = Homo sapiens, 20.0 μg/ml, P < 0.001, read-out: Cell No (% Control)

O=CCC1OCCC1=O (racemic) [Compound 8, (3-ketotetrahydrofuran-2-yl)ethanal]
Cell No ([1]; 0.5 μg/ml): 12165 | Cell No ([1]; 1.0 μg/ml): 10932 | Cell No ([1]; 1.5 μg/ml): 7453 | Cell No ([1]; 2.0 μg/ml): 4675 | Cell No ([1]; 5.0 μg/ml): 201 | activity at 0.5 µg/mL ([1]; Homo sapiens, 0.5 μg/ml, P < 0.001, read-out: Cell No (% Control)): 83.9% | activity at 1 µg/mL ([1]; Homo sapiens, 1.0 μg/ml, P < 0.001, read-out: Cell No (% Control)): 75.4% | activity at 1.5 µg/mL ([1]; Homo sapiens, 1.5 μg/ml, P < 0.001, read-out: Cell No (% Control)): 51.4% | activity at 2 µg/mL [1, 10]: 32.2% | activity at 5 µg/mL [1, 11]: 1.4% | activity at 0.5 µg/mL ([2]; Homo sapiens, MOLT-4, MOLT4, 0.5 μg/ml, P < 0.001, read-out: Cell No (% Control)): 91.2% | activity at 1 µg/mL ([2]; Homo sapiens, MOLT-4, MOLT4, 1.0 μg/ml, P < 0.001, read-out: Cell No (% Control)): 78.8% | activity at 1.5 µg/mL ([2]; Homo sapiens, MOLT-4, MOLT4, 1.5 μg/ml, P < 0.001, read-out: Cell No (% Control)): 53.7% | activity at 2 µg/mL ([2]; Homo sapiens, MOLT-4, MOLT4, 2.0 μg/ml, P < 0.001, read-out: Cell No (% Control)): 34.2% | activity at 5 µg/mL ([2]; Homo sapiens, MOLT-4, MOLT4, 5.0 μg/ml, P < 0.001, read-out: Cell No (% Control)): 12.4% | Cell No ([2]; MOLT4, 0.5 μg/ml): 4543 | Cell No ([2]; MOLT4, 1.0 μg/ml): 3920 | Cell No ([2]; MOLT4, 1.5 μg/ml): 2674 | Cell No ([2]; MOLT4, 2.0 μg/ml): 1701 | Cell No ([2]; MOLT4, 5.0 μg/ml): 619 | Cell No ([3]; 2.0 μg/ml): 4401 | Cell No ([3]; 5.0 μg/ml): 4617 | Cell No ([3]; 7.5 μg/ml): 3495 | Cell No ([3]; 10.0 μg/ml): 2800 | Cell No ([3]; 20.0 μg/ml): 234 | activity at 2 µg/mL ([3]; Homo sapiens, Ca-Ski, 2.0 μg/ml, P < 0.001, read-out: Cell No (% Control)): 89.1% | activity at 5 µg/mL ([3]; Homo sapiens, Ca-Ski, 5.0 μg/ml, read-out: Cell No (% Control)): 93.5% | activity at 7.5 µg/mL ([3]; Homo sapiens, Ca-Ski, 7.5 μg/ml, P < 0.001, read-out: Cell No (% Control)): 70.8% | activity at 10 µg/mL ([3]; Homo sapiens, Ca-Ski, 10.0 μg/ml, P < 0.001, read-out: Cell No (% Control)): 56.7% | activity at 20 µg/mL ([3]; Homo sapiens, Ca-Ski, 20.0 μg/ml, P < 0.001, read-out: Cell No (% Control)): 4.7% | activity at 2 µg/mL ([4]; Homo sapiens, PC-3, PC3, 2.0 μg/ml, P < 0.05, read-out: Cell No (% Control)): 87.9% | activity at 5 µg/mL ([4]; Homo sapiens, PC-3, PC3, 5.0 μg/ml, P < 0.001, read-out: Cell No (% Control)): 67.4% | activity at 7.5 µg/mL ([4]; Homo sapiens, PC-3, PC3, 7.5 μg/ml, P < 0.001, read-out: Cell No (% Control)): 32.9% | activity at 10 µg/mL ([4]; Homo sapiens, PC-3, PC3, 10.0 μg/ml, P < 0.001, read-out: Cell No (% Control)): 9.3% | activity at 20 µg/mL ([4]; Homo sapiens, PC-3, PC3, 20.0 μg/ml, P < 0.001, read-out: Cell No (% Control)): 5.9% | Cell No ([4]; PC3, 2.0 μg/ml): 5908 | Cell No ([4]; PC3, 5.0 μg/ml): 4532 | Cell No ([4]; PC3, 7.5 μg/ml): 2211 | Cell No ([4]; PC3, 10.0 μg/ml): 627 | Cell No ([4]; PC3, 20.0 μg/ml): 399 | activity at 0.5 µg/mL ([5]; Homo sapiens, WIL2, 0.5 μg/ml, P < 0.001, read-out: Cell No (% Control)): 85.3% | activity at 1 µg/mL ([5]; Homo sapiens, WIL2, 1.0 μg/ml, P < 0.001, read-out: Cell No (% Control)): 58.8% | activity at 1.5 µg/mL ([5]; Homo sapiens, WIL2, 1.5 μg/ml, P < 0.001, read-out: Cell No (% Control)): 24.9% | activity at 2 µg/mL ([5]; Homo sapiens, WIL2, 2.0 μg/ml, P < 0.001, read-out: Cell No (% Control)): 16.1% | activity at 5 µg/mL ([5]; Homo sapiens, WIL2, 5.0 μg/ml, P < 0.001, read-out: Cell No (% Control)): 7.1% | Cell No ([5]; WIL2, 0.5 μg/ml): 8431 | Cell No ([5]; WIL2, 1.0 μg/ml): 5810 | Cell No ([5]; WIL2, 1.5 μg/ml): 2459 | Cell No ([5]; WIL2, 2.0 μg/ml): 1591 | Cell No ([5]; WIL2, 5.0 μg/ml): 705 | Cell No ([6]; 2.0 μg/ml): 9442 | Cell No ([6]; 5.0 μg/ml): 6356 | Cell No ([6]; 7.5 μg/ml): 2469 | Cell No ([6]; 10.0 μg/ml): 862 | Cell No ([6]; 20.0 μg/ml): 380 | activity at 2 µg/mL [6, 10]: 84.5% | activity at 5 µg/mL [6, 11]: 56.9% | activity at 7.5 µg/mL [6, 12]: 22.1% | activity at 10 µg/mL [6, 13]: 7.7% | activity at 20 µg/mL [6, 14]: 3.4% | Cell No ([7]; 2.0 μg/ml): 5845 | Cell No ([7]; 5.0 μg/ml): 5762 | Cell No ([7]; 7.5 μg/ml): 5097 | Cell No ([7]; 10.0 μg/ml): 3826 | Cell No ([7]; 20.0 μg/ml): 178 | activity at 2 µg/mL ([7]; Homo sapiens, 2.0 μg/ml, P < 0.05, read-out: Cell No (% Control)): 90.9% | activity at 5 µg/mL ([7]; Homo sapiens, 5.0 μg/ml, P < 0.05, read-out: Cell No (% Control)): 89.6% | activity at 7.5 µg/mL [7, 12]: 79.3% | activity at 10 µg/mL [7, 13]: 59.5% | activity at 20 µg/mL [7, 14]: 2.8% | Cell No ([8]; G361, 2.0 μg/ml): 1679 | Cell No ([8]; G361, 5.0 μg/ml): 314 | Cell No ([8]; G361, 7.5 μg/ml): 159 | Cell No ([8]; G361, 10.0 μg/ml): 142 | Cell No ([8]; G361, 20.0 μg/ml): 230 | activity at 2 µg/mL ([8]; Homo sapiens, G-361, G361, 2.0 μg/ml, P < 0.001, read-out: Cell No (% Control)): 35.8% | activity at 5 µg/mL ([8]; Homo sapiens, G-361, G361, 5.0 μg/ml, P < 0.001, read-out: Cell No (% Control)): 6.7% | activity at 7.5 µg/mL ([8]; Homo sapiens, G-361, G361, 7.5 μg/ml, P < 0.001, read-out: Cell No (% Control)): 3.4% | activity at 10 µg/mL ([8]; Homo sapiens, G-361, G361, 10.0 μg/ml, P < 0.001, read-out: Cell No (% Control)): 3% | activity at 20 µg/mL ([8]; Homo sapiens, G-361, G361, 20.0 μg/ml, P < 0.001, read-out: Cell No (% Control)): 4.9% | activity at 0.5 µg/mL ([9]; Homo sapiens, PA-1, 0.5 μg/ml, P < 0.001, read-out: Cell No (% Control)): 84.3% | activity at 1 µg/mL ([9]; Homo sapiens, PA-1, 1.0 μg/ml, P < 0.001, read-out: Cell No (% Control)): 84.9% | activity at 1.5 µg/mL ([9]; Homo sapiens, PA-1, 1.5 μg/ml, P < 0.001, read-out: Cell No (% Control)): 77.3% | activity at 2 µg/mL ([9]; Homo sapiens, PA-1, 2.0 μg/ml, P < 0.001, read-out: Cell No (% Control)): 72.4% | activity at 5 µg/mL ([9]; Homo sapiens, PA-1, 5.0 μg/ml, P < 0.001, read-out: Cell No (% Control)): 20.9% | Cell No ([9]; PA-1, 0.5 μg/ml): 11346 | Cell No ([9]; PA-1, 1.0 μg/ml): 11276 | Cell No ([9]; PA-1, 1.5 μg/ml): 10338 | Cell No ([9]; PA-1, 2.0 μg/ml): 9678 | Cell No ([9]; PA-1, 5.0 μg/ml): 2729
